From ChEMBL document CHEMBL6134844, “Development of Next-Generation Antimalarial Acridones with Radical Cure Potential” (J Med Chem, 2025)

Key:
Plasmodium cynomolgi [1] = test: (§1) Antiplasmodial activity against hypnozoite Plasmodium cynomolgi B strain infected in Macaca mulatta hepatocytes incubated with sporozoite containing salivary gland homogenate obtained from dissected Anopheles dirus mosquitoes (infected with Plasmodium cynomolgi B strain) treatment started on day 4 post infection and continued daily for 4 days into fresh changed media until day 8 assessed as Liver stage (LS) activity by measuring prophylactic mode by immunofluorescent staining analysis; assay type: functional, organism-based; details: Hepatocyte
Plasmodium cynomolgi [2] = test: as §1, with “schizont” for “hypnozoite”; assay type: functional, organism-based; details: Hepatocyte
[3] = AUClast in male ICR-CD1 mouse liver at 40 mg/kg, po; assay type: ADME, organism-based
Plasmodium yoelii [4] = test: In vivo antiplasmodial activity against asexual blood-stage (ABS) Plasmodium yoelii MRA-428 infected in 4-day suppression CF1 mouse model assessed as reduction in parasitemia by measuring protection at 30 mg/kg, po treated 24 hrs post infection daily measured up to 28 days; assay type: functional, organism-based; details: time <= 28.0 day
Plasmodium berghei [5] = test: In vivo antiplasmodial activity against luciferase expressing liver stage Plasmodium berghei ANKA MRA-868 sporozoites infected in Albino C57BL/6 mouse model assessed as protection at 10 mg/kg, po daily measured 24 to 72 hrs by real-time In Vivo Imaging System (IVIS); assay type: functional
Plasmodium berghei [6] = test: In vivo antiplasmodial activity against luciferase expressing liver stage Plasmodium berghei ANKA MRA-868 sporozoites infected in Albino C57BL/6 mouse model assessed as protection at 40 mg/kg, po daily measured 24 to 72 hrs by real-time In Vivo Imaging System (IVIS); assay type: functional; details: time 24-72 hrs
Plasmodium berghei [7] = test: In vivo antiplasmodial activity against luciferase expressing liver stage Plasmodium berghei ANKA MRA-868 sporozoites infected in Albino C57BL/6 mouse model assessed as cured mouse at 40 mg/kg, po daily measured after 31 days; assay type: functional, organism-based; details: time 31.0 day
[8] = target: Voltage-gated inwardly rectifying potassium channel KCNH2 (Homo sapiens, UniProt Q12809); test: Inhibition of hERG expressed in HEK293 cells by manual patch clamp assay; assay type: toxicity, cell-based
Voltage-gated inwardly rectifying potassium channel KCNH2, sequence (Q12809 whole entry): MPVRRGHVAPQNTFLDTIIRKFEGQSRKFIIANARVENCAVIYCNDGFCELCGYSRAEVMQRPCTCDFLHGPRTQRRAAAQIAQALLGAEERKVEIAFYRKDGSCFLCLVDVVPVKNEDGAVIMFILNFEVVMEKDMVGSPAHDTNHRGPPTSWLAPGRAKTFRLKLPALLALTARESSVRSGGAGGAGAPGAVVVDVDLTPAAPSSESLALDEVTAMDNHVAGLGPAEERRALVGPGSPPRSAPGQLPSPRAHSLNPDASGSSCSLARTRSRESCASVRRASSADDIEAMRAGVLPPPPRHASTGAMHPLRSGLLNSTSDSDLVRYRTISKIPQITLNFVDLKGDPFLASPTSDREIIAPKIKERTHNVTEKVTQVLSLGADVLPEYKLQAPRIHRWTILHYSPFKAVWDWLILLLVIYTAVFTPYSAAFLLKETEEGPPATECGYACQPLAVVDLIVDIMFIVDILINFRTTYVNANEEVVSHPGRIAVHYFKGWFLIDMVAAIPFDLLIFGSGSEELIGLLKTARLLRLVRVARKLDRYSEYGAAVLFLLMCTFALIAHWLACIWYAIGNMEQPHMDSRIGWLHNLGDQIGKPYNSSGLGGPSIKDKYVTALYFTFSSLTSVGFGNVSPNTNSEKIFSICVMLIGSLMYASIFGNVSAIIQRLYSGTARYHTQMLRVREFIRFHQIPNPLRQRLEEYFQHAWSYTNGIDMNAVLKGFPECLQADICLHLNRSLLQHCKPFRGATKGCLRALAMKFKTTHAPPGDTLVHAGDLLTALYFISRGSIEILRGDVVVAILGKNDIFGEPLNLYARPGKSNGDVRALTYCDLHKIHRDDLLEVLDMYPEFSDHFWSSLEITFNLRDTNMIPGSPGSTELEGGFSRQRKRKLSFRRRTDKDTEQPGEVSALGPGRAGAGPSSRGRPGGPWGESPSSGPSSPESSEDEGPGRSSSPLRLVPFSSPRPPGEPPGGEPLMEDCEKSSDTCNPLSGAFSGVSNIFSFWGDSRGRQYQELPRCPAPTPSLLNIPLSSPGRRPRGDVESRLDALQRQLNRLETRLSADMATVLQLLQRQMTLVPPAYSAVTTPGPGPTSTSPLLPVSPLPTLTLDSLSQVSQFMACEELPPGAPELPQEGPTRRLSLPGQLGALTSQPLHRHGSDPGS

Plasmodium falciparum [9] = test: Antiplasmodial activity against AART-resistant Plasmodium falciparum DR1 measured after 72 hrs by drug susceptibility test; assay type: functional, organism-based; details: DR1, 72 h
Plasmodium falciparum [10] = test: Antiplasmodial activity against AART-resistant Plasmodium falciparum DR4 measured after 72 hrs by drug susceptibility test; assay type: functional, organism-based; details: DR4, 72 h
Plasmodium falciparum [11] = test: Antiplasmodial activity against Plasmodium falciparum Dd2 measured after 72 hrs by drug susceptibility test; assay type: functional, organism-based; details: Dd2, 72 h
Plasmodium falciparum [12] = test: Ex vivo antiplasmodial activity against clinical isolate Plasmodium falciparum isolated from Ugandan measured after 72 hrs by growth inhibition assay; assay type: functional, organism-based
Plasmodium falciparum [13] = test: Synergistic antiplasmodial activity against pan-sensitive Plasmodium falciparum D6 assessed as fractional inhibitory concentration in presence of tafenoquine; assay type: functional
Plasmodium falciparum [14] = test: Synergistic antiplasmodial activity against multi-drug resistant Plasmodium falciparum Tm90-C2B assessed as fractional inhibitory concentration in presence of tafenoquine; assay type: functional
Hepatocyte = test: Cytotoxicity against Macaca mulatta hepatocytes assessed as cell viability measured after 48 hrs by MTT assay; assay type: toxicity, cell-based; details: rhesus monkey, 48 h
[15] = mouse, microsomes, 1 h
[16] = Half life in male ICR-CD1 mouse plasma at 40 mg/kg, po; assay type: ADME, organism-based
[17] = AUCextrap in male ICR-CD1 mouse plasma at 40 mg/kg, po; assay type: ADME, organism-based
[18] = AUC(0 to infinity) in male ICR-CD1 mouse plasma at 40 mg/kg, po; assay type: ADME, organism-based; details: in vivo
[19] = Apparent oral clearance in male ICR-CD1 mouse plasma at 40 mg/kg, po; assay type: ADME, organism-based; details: in vivo
Plasmodium yoelii [20] = test: In vivo antiplasmodial activity against asexual blood-stage (ABS) Plasmodium yoelii MRA-428 infected in 4-day suppression CF1 mouse model assessed as reduction in parasitemia treated 24 hrs post infection daily measured on day 4; assay type: functional
Plasmodium yoelii [21] = test: In vivo antiplasmodial activity against asexual blood-stage (ABS) Plasmodium yoelii MRA-428 infected in 4-day suppression CF1 mouse model assessed as reduction in parasitemia by measuring protection at 10 mg/kg, po treated 24 hrs post infection daily for 4 days relative to control; assay type: functional; design: scale not given: the % may be the effect or the level left

`O=c1c2c([nH]c3cc(Oc4ccc(OC(F)(F)F)cc4)ccc13)CCCC2` showed an IC50 (Plasmodium cynomolgi [1]) of 340 nM, an IC50 (Plasmodium cynomolgi [2]) of 130 nM and an AUC(0-t) [3] of 32900 ng·h/mL. For the same compound, the Activity (Plasmodium yoelii [4]) was “Active; Out Of 4 - 3 Mouse Cured”, the Activity (Plasmodium berghei [5]; time 24-72 hrs) was 100% and the Activity (Plasmodium berghei [6]) was 100%. The Activity (Plasmodium berghei [7]) was “Active; Out Of 5 - 5 Mouse Cured”, the IC50 [8] was over 10000 nM and the IC50 (Plasmodium falciparum [9]) was 5.26 nM. The IC50 (Plasmodium falciparum [10]) was 5.35 nM, the IC50 (Plasmodium falciparum [11]) was 2.06 nM and the IC50 (Plasmodium falciparum [12]) was 10.5 nM. The FIC (Plasmodium falciparum [13]) was 0.81, the FIC (Plasmodium falciparum [14]) was 0.76 and the CC50 (Hepatocyte) was 610 nM. It also gave a t1/2 [15] of 0.197 h.

`O=c1c2c([nH]c3cc(Oc4ccc(OC(F)(F)F)cc4)c(F)cc13)CCCC2` gave an IC50 (Plasmodium cynomolgi [1]) of 600 nM, an IC50 (Plasmodium cynomolgi [2]) of 100 nM and a half-life [16] of 3.89 h. The AUC(0-t) [3] was 5470 ng·h/mL, the AUC [17] was 23.7% and the AUC [18] was 219 ng·h/mL. For the same compound, the CL/F [19] was 87.98 mL/min/kg, the ED50 (Plasmodium yoelii [20]) was 1.5 mg/kg and the ED90 (Plasmodium yoelii [20]) was 4.7 mg/kg. For the same compound, the Activity (Plasmodium yoelii [4]) was “Active; Out Of 4 - 3 Mouse Cured”, the Activity (Plasmodium yoelii [21]) was 100% and the Activity (Plasmodium berghei [5]; time lower 24.0 hrs, time upper […]) was “Not active; Out Of 5 - 0 Mouse Cured”. For the same compound, the Activity (Plasmodium berghei [6]) was 100% and the CC50 (Hepatocyte) was 3110 nM.
